Reference: patent publication US4657927A, “Malonato platinum compounds” (Research Corporation, priority 1983, dated 1987)

Key:
Sarcoma 180 [1] = test: Antitumor activity, solid sarcoma 180 tumor, T/C of tumor weights at day 10 (Table I); assay type: in vivo, female Swiss white mice
Procedure: The compounds of the invention were tested for antitumor activity, i.e., for sensitivity to a planar dsp^2 platinum(II) coordination compound or an octahedral d^2 sp^3 platinum(IV) coordination compound using our standard screening tumor, solid sarcoma 180 tumor in female Swiss white mice, following standard protocols for this testing as set by the National Cancer Institute. (Cancer Chemotherapy Rep., 25 (1962)).
For these tests an S 180 tumor taken from a sacrificed mouse was disected free of superfluous tissue and cut under sterile conditions into approximately 10 milligram size pieces. These tissue pieces were then implanted by trocar in the left axillary region, subcutaneously, in new mice. The mice were, on the average, approximately four weeks old and weighed 18-20 grams. Taking day 0 as the day of implant, the animals were sacrificed on day 10. The tumors were excised and weighed and the ratio of the weights of the tumors in mice in the treated animals to the control set of animals was obtained. This ratio, multiplied by 100, is given as the T/C ratio in Table I.
For the first set of tests the coordination compound was freshly dissolved in sterile distilled water and injected intraperitoneally on day 1 into each of the test mice. The volume of the injection was usually 1/2 ml. In some cases, in order to get an active dose into the animal where the chemical was not soluble in this amount of solvent, a fine dispersion was prepared of the dose needed for the test. Thus, some of our test results were obtained on animals where a slurry of the compound was injected. These are so noted in Table I below. In addition, for some of the compounds, there was injected about 1 ml of solution, either in one single injection, or in 2 injections given a few hours apart of 1/2 ml each. These injections were initially given in 4 different dose levels for each new compound with 6 mice in each dose level. The tests covered a dose range from a low ineffective dose, to an upper dose level which produced some deaths within the time period of the experiment.

Sarcoma 180 [2] = test: Large Sarcoma 180 regressions, injection on day 8 (Table II); assay type: in vivo, female Swiss white mice; details: single i.p. injection on day 8, H2O solution
Procedure: In addition to the day 1 injections described above, in a number of case injections were delayed until day 8 of tumor growth. In these cases the tumor was usually at least larger than 1/2 gm, as estimated by palpation. The animals were then injected and observed for a period of approximately 60 days. Activity was measured by the number of animals whose tumors had regressed to the vanishing point, while still allowing the animal to survive for this time period. Such test results are described in TABLE II below.

[3] = test system: Walker 256 Carcinosarcoma; test: Confirmatory antitumor test, Walker 256 Carcinosarcoma (Table III); assay type: in vivo, Rat; details: single injection day 1 in oil, i.p.
Procedure: (§1) Confirmatory tests of antitumor activity against the Walker 256 Carcinosarcoma in rats, and the ADJ/PC6A tumor in mice were conducted. The initial test results are shown in Table III and confirm the potent action of the compounds of the invention against these other tumor systems.

ADJ/PC6A = test: Confirmatory antitumor test, ADJ/PC6A tumor (Table III); assay type: in vivo, Mouse; details: single injection day 25 in oil, i.p.
Procedure: as §1

L1210 = test: Confirmatory antitumor test at the National Cancer Institute, L1210 (Table IV); assay type: in vivo, Mice
Description: Samples of the malonato diammine and malonato ethylene diamine complexes of platinum(II) were submitted to the Drug Research and Development Branch of the National Cancer Institute for screening for antitumor activity against the L1210 tumor in mice. They confirm the activity of the compounds of the invention.

[4] = 30 mg/kg, single i.p. injection day 1, solution in H2O
[5] = 40 mg/kg, single i.p. injection day 1, solution in H2O
[6] = 50 mg/kg, single i.p. injection day 1, solution in H2O
[7] = 60 mg/kg, single i.p. injection day 1, solution in H2O
[8] = 70 mg/kg, single i.p. injection day 1, solution in H2O
[9] = 80 mg/kg, single i.p. injection day 1, solution in H2O
[10] = dose level 45 (unit not given), single i.p. injection day 1
[11] = dose level 60 (unit not given), single i.p. injection day 1
[12] = dose level 75 (unit not given), single i.p. injection day 1
[13] = dose level 90 (unit not given), single i.p. injection day 1
[14] = 90 mg/kg, single i.p. injection day 1, solution in H2O
[15] = 10 mg/kg, single i.p. injection day 1, solution in H2O
[16] = 20 mg/kg, single i.p. injection day 1, solution in H2O
[17] = 45 mg/kg, single i.p. injection day 1, solution in H2O
[18] = 55 mg/kg, single i.p. injection day 1, solution in H2O
[19] = dose level 80 (unit not given), single i.p. injection day 1
[20] = dose level 100 (unit not given), single i.p. injection day 1
[21] = dose level 120 (unit not given), single i.p. injection day 1
[22] = dose level 40 (unit not given), single i.p. injection day 1
[23] = dose level 110 (unit not given), single i.p. injection day 1

CCC(C(=O)[O-])C(=O)[O-].N.N.[Pt+2] [ethylmalonatodiammineplatinum (II)]
No. of Deaths (Sarcoma 180 [1]; [4]): 0
T/C (Sarcoma 180 [1]; [4]): 57
No. of Deaths (Sarcoma 180 [1]; [5]): 0
T/C (Sarcoma 180 [1]; [5]): 43
No. of Deaths (Sarcoma 180 [1]; [6]): 0
T/C (Sarcoma 180 [1]; [6]): 47
No. of Deaths (Sarcoma 180 [1]; [7]): 0
T/C (Sarcoma 180 [1]; [7]): 39
No. of Deaths (Sarcoma 180 [1]; [8]): 0
T/C (Sarcoma 180 [1]; [8]): 17
No. of Deaths (Sarcoma 180 [1]; [9]): 0
T/C (Sarcoma 180 [1]; [9]): 16

CC(N)CN.O=C([O-])CC(=O)[O-].[Pt+2] [malonato-1,2 propylenediamineplatinum (II)]
No. of Deaths (Sarcoma 180 [1]; [10]): 0
T/C (Sarcoma 180 [1]; [10]): 50
No. of Deaths (Sarcoma 180 [1]; [11]): 1
T/C (Sarcoma 180 [1]; [11]): 9
No. of Deaths (Sarcoma 180 [1]; [12]): 3
T/C (Sarcoma 180 [1]; [12]): 16
No. of Deaths (Sarcoma 180 [1]; [13]): 5

CC1C(=O)[O][Pt]2([NH]CC[NH]2)[O]C1=O [methylmalonatoethylenediamineplatinum(II)]
No. of Deaths (Sarcoma 180 [1]; [4]): 0
T/C (Sarcoma 180 [1]; [4]): 78
No. of Deaths (Sarcoma 180 [1]; [5]): 0
T/C (Sarcoma 180 [1]; [5]): 80
No. of Deaths (Sarcoma 180 [1]; [6]): 0
T/C (Sarcoma 180 [1]; [6]): 51
No. of Deaths (Sarcoma 180 [1]; [7]): 0
T/C (Sarcoma 180 [1]; [7]): 26
No. of Deaths (Sarcoma 180 [1]; [8]): 1
T/C (Sarcoma 180 [1]; [8]): 20
No. of Deaths (Sarcoma 180 [1]; [14]): 1
T/C (Sarcoma 180 [1]; [14]): 4

NCCN.O=C([O-])CC(=O)[O-].[Pt+2] [malonatoethylenediamineplatinum (II)]
No. of Deaths (Sarcoma 180 [1]; [15]): 0
T/C (Sarcoma 180 [1]; [15]): 88
No. of Deaths (Sarcoma 180 [1]; [16]): 0
T/C (Sarcoma 180 [1]; [16]): 58
No. of Deaths (Sarcoma 180 [1]; [5]): 0
T/C (Sarcoma 180 [1]; [5]): 18
No. of Deaths (Sarcoma 180 [1]; [17]): 0
T/C (Sarcoma 180 [1]; [17]): 49
No. of Deaths (Sarcoma 180 [1]; [6]): 0
T/C (Sarcoma 180 [1]; [6]): 35
No. of Deaths (Sarcoma 180 [1]; [18]): 0
T/C (Sarcoma 180 [1]; [18]): 38
No. of Deaths (Sarcoma 180 [1]; [7]): 3/6
T/C (Sarcoma 180 [1]; [7]): 15
No. of Deaths (Sarcoma 180 [1]; [9]): 3/6
T/C (Sarcoma 180 [1]; [9]): 24
No. of Deaths (Sarcoma 180 [1]; [11]): 0
T/C (Sarcoma 180 [1]; [11]): 80
No. of Deaths (Sarcoma 180 [1]; [19]): 0
No. of Deaths (Sarcoma 180 [1]; [20]): 0
T/C (Sarcoma 180 [1]; [20]): 85
No. of Deaths (Sarcoma 180 [1]; [21]): 0
T/C (Sarcoma 180 [1]; [21]): 50
Deaths (Sarcoma 180 [2]; 40 mg/kg): 3
Total Number of Regressions (Sarcoma 180 [2]; 40 mg/kg): 3
Deaths (Sarcoma 180 [2]; 45 mg/kg): 5
Total Number of Regressions (Sarcoma 180 [2]; 45 mg/kg): 1
Deaths (Sarcoma 180 [2]; 50 mg/kg): 4
Total Number of Regressions (Sarcoma 180 [2]; 50 mg/kg): 2
Deaths (Sarcoma 180 [2]; 60 mg/kg): 3
Total Number of Regressions (Sarcoma 180 [2]; 60 mg/kg): 3
% Inhibition ([3]; dose 10 (unit not given)): 1%
Deaths ([3]; dose 10 (unit not given)): 0
% Inhibition ([3]; dose 20 (unit not given)): 25%
Deaths ([3]; dose 20 (unit not given)): 0
% Inhibition ([3]; dose 40 (unit not given)): 100%
Deaths ([3]; dose 40 (unit not given)): 0
% Inhibition ([3]; dose 80 (unit not given)): 100%
Deaths ([3]; dose 80 (unit not given)): 0
Deaths ([3]; dose 160 (unit not given)): all
% Inhibition (ADJ/PC6A; dose 4 (unit not given)): 1.3%
Deaths (ADJ/PC6A; dose 4 (unit not given)): 0
% Inhibition (ADJ/PC6A; dose 20 (unit not given)): 94%
Deaths (ADJ/PC6A; dose 20 (unit not given)): 0
% Inhibition (ADJ/PC6A; dose 100 (unit not given)): 100%
Deaths (ADJ/PC6A; dose 100 (unit not given)): 0
Deaths (ADJ/PC6A; dose 500 (unit not given)): all
% Increase in Lifespan (L1210; 11 mg/kg, daily injections days 1-9, i.p. (repeat test)): 145%
% Increase in Lifespan (L1210; 12.5 mg/kg, daily injections days 1-9, i.p.): 151%
% Increase in Lifespan (L1210; 16.5 mg/kg, daily injections days 1-9, i.p. (repeat test)): 160%
% Increase in Lifespan (L1210; 25 mg/kg, daily injections days 1-9, i.p.): 160%
% Increase in Lifespan (L1210; 25 mg/kg, daily injections days 1-9, i.p. (repeat test)): 196%
% Increase in Lifespan (L1210; 37.5 mg/kg, daily injections days 1-9, i.p. (repeat test)): 121%
% Increase in Lifespan (L1210; 50 mg/kg, daily injections days 1-9, i.p.): 101%

CCC1C(=O)[O][Pt]2([NH]CC[NH]2)[O]C1=O [ethylmalonatoethylenediamineplatinum (II)]
No. of Deaths (Sarcoma 180 [1]; [22]): 0
T/C (Sarcoma 180 [1]; [22]): 72
No. of Deaths (Sarcoma 180 [1]; [11]): 0
T/C (Sarcoma 180 [1]; [11]): 81
No. of Deaths (Sarcoma 180 [1]; [19]): 0
T/C (Sarcoma 180 [1]; [19]): 79
No. of Deaths (Sarcoma 180 [1]; [13]): 0
T/C (Sarcoma 180 [1]; [13]): 47
No. of Deaths (Sarcoma 180 [1]; [20]): 1
T/C (Sarcoma 180 [1]; [20]): 55
No. of Deaths (Sarcoma 180 [1]; [23]): 0
T/C (Sarcoma 180 [1]; [23]): 41
No. of Deaths (Sarcoma 180 [1]; [21]): 0
T/C (Sarcoma 180 [1]; [21]): 58
